This is an account of results in patent US20030161893A1, “PTPase inhibitors and methods of using the same” (priority 2001, published 2003).

Assay [1] has as its system TF-1 cells. The experiment in a line: TF-1 cell proliferation assay. Type of assay: cell-based, human. The procedure:
The murine hematopoietic cell line Baf3 was maintained in RPMI 1640 medium supplemented with 10% fetal calf serum (FCS) and murine IL-3 (20 units/ml) as described previously in Damen et al., J. Biol. Chem. 270, 23402 (1995). Human myeloid cell line TF-1 was maintained in RPMI 1640 supplemented with 10% FCS and 40 ng/ml of recombinant human GM-CSF as described previously in Thomassen et al., Clin. Immunol. 95, 85 (2000). For cell proliferation assays, cells were washed in 10% FCS medium twice, resuspended in 10% FCS medium, incubated at 37° C. for 16 hours, and then cultured at 37° C. in 10% FCS medium containing various amounts of cytokines, sodium stibogluconate, or potassium antimonyl tartrate for 3-6 days as indicated. The cell numbers in proliferation assays were determined by an MTT assay or by microscopic cell counting as indicated.

For assay [2], the system named is Stat1. Nature of the assay: IFN-alpha-induced Stat1 tyrosine phosphorylation, DR cells. Type of assay: cell-based, human. The procedure:
(§1) For induction of Stat1 tyrosine phosphorylation by IFN-alpha in the absence or presence of sodium stibogluconate, cells grown in 10% FCS RPMI 1640 medium at 37° C. were stimulated with IFN-alpha (50 u/ml) for various time points and treated with or without sodium stibogluconate for 5 minutes prior to termination by lysing the cells in cold lysis buffer (1% NP-40; 50 mM Tris, pH 7.4; 100 mM NaCl; 1 mM EDTA, 10% glycerol, 10 mM sodium molybdic acid and 4 mM AEBSF).
(§2) Cell lysates were prepared by lysing cells in cold lysis buffer for 30 min and cleared by centrifuging at 14,000 rpm at 4° C. for 15 min. For SDS-PAGE, cell lysates were mixed with equal volume of 2×SDS-PAGE sample buffer, heated at 90° C. for 5 min and separated in 10% SDS-PAGE gels. Cellular proteins in SDS-PAGE gels were transferred to nitrocellulose membrane (Schleicher & Schuell, Keene, N.H.), blocked in 5% milk, probed with antibodies and detected by using an enhanced chemiluminescence kit (ECL, Amersham, Arlington Heights, Ill.).

In assay [3] the test system is Stat1. The experiment in a line: IFN-alpha-induced Stat1 tyrosine phosphorylation, WiT49-N1 cells. Type of assay: cell-based, human. The procedure: as §1, §2
Assay [4] relates to NB4 cells. The experiment in a line: NB4 cell growth (MTT), cell cycle and Annexin V. Type of assay: cell-based, human. The procedure:
The NB4 cell line (Lanotte et al., Blood 77, 1080 (1991)) was a gift from Dr. Dan Lindner of the Cleveland Clinic Foundation. […] and U937 cell lines were purchased from American Type Culture Collection (Rockville, Md.). These human […] cell lines were maintained in RPMI 1640 medium supplemented with 10% fetal calf serum (FCS). For cell proliferation assays, cells were cultured at 37° C. in 10% FCS medium containing various amounts of sodium stibogluconate for 6 days. The cell numbers in the cultures were determined by an MTT assay as described previously in Mosmann, J. Imunol. Methods 65, 55 (1983).
The cell cycle was analyzed by flow cytometry after 3 days of culture of NB4 cells in the absence or presence of sodium stibogluconate (250 μg/ml) or ATRA (1 μM). Briefly, the cells were fixed in cold ethanol and incubated for 30 minutes at 4° C. in the dark with a solution of […] propidium iodide, 1 mg/ml RNase and 0.1% NP-40. Analysis was performed immediately after staining using the CELLFIT program (Becton Dickinson, Mountain View, Calif.).
Annexin V staining of exposed membrane phospholipid phosphatidylserine (PS) was done using the Annexin V assay kit (Pharmingen, San Diego, Calif.). Briefly, NB4 cells were cultured in the 10% FCS RPMI 1640 medium in the absence or presence of sodium stibogluconate (250 μg/ml) or ATRA (1 μM) for 3 days. Cells were then washed in PBS twice and stained in binding buffer (10 mM Hepes, pH 7.4; 140 mM NaCl; 2.5 mM CaCl2) containing Annexin V-FITC and propidium iodide for 15 min. The reaction was stopped by adding 10 volumes of binding buffer and analyzed by FACS (Becton Dickinson Facsvantage).

Assay [5] relates to Stat1. Nature of the assay: IFN-alpha-induced Stat1 tyrosine phosphorylation, WM35 cells. Type of assay: cell-based, human. The procedure: as §1, §2
The target in assay [6] is T1, Flag-PRL-2 (Homo sapiens, UniProt Q12974).
T1 construct: expressed in transfected cells
T1 sequence (Q12974 whole entry): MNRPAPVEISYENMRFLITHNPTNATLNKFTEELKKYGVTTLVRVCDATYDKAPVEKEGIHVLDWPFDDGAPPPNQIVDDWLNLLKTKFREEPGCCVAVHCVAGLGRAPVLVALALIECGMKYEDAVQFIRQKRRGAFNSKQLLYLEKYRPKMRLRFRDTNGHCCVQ
Nature of the assay: Immunocomplex PTPase assay, Flag-PRL-2 NIH3T3 transfectants. It counts as cell-based. The procedure:
Immunocomplex PTPase assays were performed to assess the effects of sodium stibogluconate on intracellular PTPases. Cells were untreated or treated with sodium stibogluconate for 5 minutes, washed with fresh medium and then lysed in cold lysis buffer (50 mM Tris, pH 7.4; 150 mM NaCl; 1% NP40; 2 mM PMSF; 20 ,g/ml of Aprotinin). The lysates were incubated with an anti-Flag antibody in immunoprecipitation assays. The immunocomplexes were collected with protein G sepharose beads (Pharmacia) and washed in cold lysis buffer for 4 times. […] 100 μL of malachite green solution (UBI) was added to each reaction prior to measurement of OD660 to quantify the amounts of free phosphate cleaved by the PTPases from the peptide substrate (Pathak et al., J. Imumol. 167, 3391 (2001)). The remaining 10% contents of individual samples were analyzed by SDS-PAGE/Western blotting to quantify the relative amounts of the phosphatase proteins. […]
The effects of sodium stibogluconate on intracellular PTPases were assessed using NIH3T3 or WM9 transfectants. […]

Consider `O.O.O.O.O.O.O.O.O.O=C([O-])[C@@H]1[O][Sb]2([O-])([O][Sb]34([OH])[O][C@H]([C@H](O)CO)[C@H]([O]3)[C@H](C(=O)[O-])[O]4)[O][C@H]([C@H](O)CO)[C@@H]1[O]2.[Na+].[Na+].[Na+]` [sodium stibogluconate], for which the “GM-CSF-induced proliferation of TF-1 cells” value in assay [1] (50 μg/ml, GM-CSF 5-40 ng/ml) is “augmented”. For the same compound, the “growth inhibition activity of IFN-alpha in TF-1 cells in presence of drug” value in assay [1] (50 μg/ml, with GM-CSF) is listed as “enhanced”. For the same compound, the “effect of low doses on GM-CSF-induced TF-1 growth” value in assay [1] (12.5-50 μg/ml) was “no negative effect on GM-CSF-induced cell growth”. In addition, the “IFN-alpha-induced Stat1 tyrosine phosphorylation versus control” value in assay [2] (10 μg/ml, 30 min post-stimulation) was “two folds greater than control”. The “Stat1 tyrosine phosphorylation by drug alone” value in assay [2] (absence of IFN-alpha) is reported as “failed to induce Stat1 tyrosine phosphorylation”. Besides, the “IFN-alpha-induced Stat1 tyrosine phosphorylation” value in assay [3] and in assay [5] was “failed to enhance” throughout. Further, in assay [4] (250 μg/ml, 6 days), the “Annexin V staining of NB4 cells” value is recorded as “stained positive by Annexin V”. Also, the “proliferation of NB4 cells” value in assay [4] (12.5-400 μg/ml, MTT) is recorded as “markedly inhibited”. The “cell cycle of NB4 cells” value in assay [4] (3 days, sodium stibogluconate 250 μg/ml, ATRA 1 μM) is “significant increase of cells at S phase”. For the same compound, the “time for full removal of effect on intracellular PRL-2 activity” value in assay [6] (brief treatment, NIH3T3 transfectants) is listed as “at least 24 hours”. The “PTPase activity of anti-Flag immunocomplexes, Flag-PRL-2” value in assay [6] (cells treated 5 min) is “lack of PTPase activity”.
